Experimental data as given in patent US20210368850A1, “VAPORIZABLE FORMULATION” (NICOVENTURES TRADING LIMITED, priority 2018, published 2021).

system: volunteers; assay: Example 1 observational testing: perceived cooling intensity, Vype eTank Pro e-cigarette; type: in vivo; conditions: 0.18% in e-liquid, 10 volunteers; 0 = no cooling perceivable, 10 = very strong cooling sensation
Method: 10 volunteers were asked to use each cooling agent sample in a Vype eTank Pro (an electronic cigarette device). All cooling agents were used at a concentration of 0.18% except for menthol which in one sample was used at the current commercial concentration of 1.235%. Each of the menthol samples were tested for comparative purposes.
(§1) Each volunteer was asked to assess the cooling intensity on an objective basis (i.e. not considering personal preference) and a subjective basis. The objective assessment required the volunteer to rate the overall perceived cooling intensity from 0 to 10, where 0 was no cooling perceivable and 10 was very strong cooling sensation, and to place the cooling sensation, e.g. in the mouth, throat etc. The subjective assessment required the cooling intensity to be ranked as (1) much too low, (2) slightly too low, (3) just right, (4) slightly too high or (5) much too high.

SMILES | Average Cooling Intensity (0-10)
CC(C)[C@@H]1CC[C@@H](C)CC12OCC(CO)O2 (single isomer, unassigned; (-)) [Frescolat ® MGA, (−)-menthone 1,2-glycerol ketal] | 1
CCNC(=O)[C@H]1C[C@@H](C)CC[C@@H]1C(C)C (stereo in doubt) [WS-3, (1S,2R,5S)-N-ethyl-5-methyl-2-(propan-2-yl)cyclohexanecarboxamide] | 3.045
CC(C)[C@@H]1CC[C@@H](C)C[C@H]1OCC(O)CO (stereo partly drawn) [Coolact ® 10, 3-((−)-menthoxy)propane-1,2-diol] | 0.75
CC(C)[C@@H]1CC[C@@H](C)C[C@H]1C(=O)NCCc1ccccn1 [Evercool ® 190, (1R,2S,5R)-N-(2-(pyridin-2-yl)ethyl)menthylcarboxamide] | 7.1
CC(O)C(=O)O[C@@H]1C[C@H](C)CC[C@H]1C(C)C (stereo partly drawn) [Frescolat ® ML, (−)-menthyl lactate] | 2

system: not given; assay: not given; conditions: approximate, from the literature; cited from earlier work

SMILES | Vapor pressure (mmHg) @ 25° C.
CC(C)[C@@H]1CC[C@@H](C)CC12OCC(CO)O2 (single isomer, unassigned; (-)) [Frescolat ® MGA, (−)-menthone 1,2-glycerol ketal] | 2.15E−5 mmHg
CCNC(=O)[C@H]1C[C@@H](C)CC[C@@H]1C(C)C (stereo in doubt) [WS-3, (1S,2R,5S)-N-ethyl-5-methyl-2-(propan-2-yl)cyclohexanecarboxamide] | 8.50E−5 mmHg
CC(C)[C@@H]1CC[C@@H](C)C[C@H]1OCC(O)CO (stereo partly drawn) [Coolact ® 10, 3-((−)-menthoxy)propane-1,2-diol] | 9.88E−7 mmHg
CC(C)[C@@H]1CC[C@@H](C)C[C@H]1C(=O)NCCc1ccccn1 [Evercool ® 190, (1R,2S,5R)-N-(2-(pyridin-2-yl)ethyl)menthylcarboxamide] | 1.06E−8 mmHg
CC(O)C(=O)O[C@@H]1C[C@H](C)CC[C@H]1C(C)C (stereo partly drawn) [Frescolat ® ML, (−)-menthyl lactate] | 8.58E−5 mmHg

system: volunteers; assay: Example 2: cooling intensity of WS-3 e-liquid samples, eTank Pro e-cigarette; type: in vivo; conditions: 2.5 wt % in glycerol/propylene glycol; minimum of 4 volunteers; scale 0-10
Excerpt: A minimum of 4 volunteers were asked to test each of the following e-liquid samples in an eTank Pro (an electronic cigarette device): • WS-3 at 2.5 wt % in glycerol/propylene glycol; • WS-3 at 5 wt % in glycerol/propylene glycol; and • WS-3 at 10 wt % in glycerol/propylene glycol.
as §1, with “basis in the same manner as Example 1.” for “basis.”

SMILES | Average Cooling Intensity (0-10)
CCNC(=O)[C@H]1C[C@@H](C)CC[C@@H]1C(C)C (stereo in doubt) [WS-3, (1S,2R,5S)-N-ethyl-5-methyl-2-(propan-2-yl)cyclohexanecarboxamide] | 6

same assay, conditions: 5 wt % in glycerol/propylene glycol; minimum of 4 volunteers; scale 0-10

SMILES | Average Cooling Intensity (0-10)
CCNC(=O)[C@H]1C[C@@H](C)CC[C@@H]1C(C)C (stereo in doubt) [WS-3, (1S,2R,5S)-N-ethyl-5-methyl-2-(propan-2-yl)cyclohexanecarboxamide] | 8.5

same assay, conditions: 10 wt % in glycerol/propylene glycol; minimum of 4 volunteers; scale 0-10

SMILES | Average Cooling Intensity (0-10)
CCNC(=O)[C@H]1C[C@@H](C)CC[C@@H]1C(C)C (stereo in doubt) [WS-3, (1S,2R,5S)-N-ethyl-5-methyl-2-(propan-2-yl)cyclohexanecarboxamide] | 9.8

system: not listed separately; assay: Thermogravimetric analysis (TGA) of mass loss on heating; type: physicochemical; conditions: TGA in air, rep 1; 30° C. to 600° C. at 5° C./min
Method: Prior to panel testing, the cooling agents were subjected to thermogravimetric analysis (TGA) to understand their behavior as they are heated. As is known in the art, TGA is an analytical method which can monitor the mass loss of a sample as it is heated to temperatures of up to 1000° C. and higher.
All measurements were carried out on a Perkin Elmer STA6000 TGA thermogravimetric analyzer. For solid samples, a spatula was used to transfer 5-20 mg of material into the crucible of the analyzer. Oils were introduced to the instrument by transferring 5-20 mg using a Pasteur pipette onto a small portion of Cambridge filter pad which was placed in the crucible. All samples were heated from 30° C. to 600° C. at a constant rate of 5° C./min. This was carried out for each compound twice in air and twice in nitrogen. For a small number of samples, the run was stopped at 500-600° C. when full mass loss had been observed. For comparative purposes, menthol was also analyzed.
The onset temperature of mass loss for each compound was determined by visual inspection of the TGA traces on the computer software and the results are summarized in Table 2.

SMILES | Tpeak of mass loss (° C.) Air (rep 1)
CC(C)[C@@H]1CC[C@@H](C)C[C@H]1OCC(O)CO (stereo partly drawn) [Coolact ® 10, 3-((−)-menthoxy)propane-1,2-diol] | 119 °C
CC(C)[C@@H]1CC[C@@H](C)C[C@H]1C(=O)NCCc1ccccn1 [Evercool ® 190, (1R,2S,5R)-N-(2-(pyridin-2-yl)ethyl)menthylcarboxamide] | 161 °C

Further lines, results first:

Tpeak of mass loss (° C.) Air (rep 1) | SMILES
93 °C | CC(C)[C@@H]1CC[C@@H](C)CC12OCC(CO)O2 (single isomer, unassigned; (-)) [Frescolat ® MGA, (−)-menthone 1,2-glycerol ketal]
127 °C | CCNC(=O)[C@H]1C[C@@H](C)CC[C@@H]1C(C)C (stereo in doubt) [WS-3, (1S,2R,5S)-N-ethyl-5-methyl-2-(propan-2-yl)cyclohexanecarboxamide]
86 °C | CC(O)C(=O)O[C@@H]1C[C@H](C)CC[C@H]1C(C)C (stereo partly drawn) [Frescolat ® ML, (−)-menthyl lactate]

same assay, conditions: TGA in air, rep 2; 30° C. to 600° C. at 5° C./min

SMILES | Tpeak of mass loss (° C.) Air (rep 2)
CC(C)[C@@H]1CC[C@@H](C)C[C@H]1OCC(O)CO (stereo partly drawn) [Coolact ® 10, 3-((−)-menthoxy)propane-1,2-diol] | 112 °C
CC(C)[C@@H]1CC[C@@H](C)C[C@H]1C(=O)NCCc1ccccn1 [Evercool ® 190, (1R,2S,5R)-N-(2-(pyridin-2-yl)ethyl)menthylcarboxamide] | 164 °C

Next, values leading:

Tpeak of mass loss (° C.) Air (rep 2) | SMILES
85 °C | CC(C)[C@@H]1CC[C@@H](C)CC12OCC(CO)O2 (single isomer, unassigned; (-)) [Frescolat ® MGA, (−)-menthone 1,2-glycerol ketal]
132 °C | CCNC(=O)[C@H]1C[C@@H](C)CC[C@@H]1C(C)C (stereo in doubt) [WS-3, (1S,2R,5S)-N-ethyl-5-methyl-2-(propan-2-yl)cyclohexanecarboxamide]
88 °C | CC(O)C(=O)O[C@@H]1C[C@H](C)CC[C@H]1C(C)C (stereo partly drawn) [Frescolat ® ML, (−)-menthyl lactate]

same assay, conditions: TGA in nitrogen, rep 1; 30° C. to 600° C. at 5° C./min

SMILES | Tpeak of mass loss (° C.) Nitrogen (rep 1)
CC(C)[C@@H]1CC[C@@H](C)C[C@H]1OCC(O)CO (stereo partly drawn) [Coolact ® 10, 3-((−)-menthoxy)propane-1,2-diol] | 115 °C
CC(C)[C@@H]1CC[C@@H](C)C[C@H]1C(=O)NCCc1ccccn1 [Evercool ® 190, (1R,2S,5R)-N-(2-(pyridin-2-yl)ethyl)menthylcarboxamide] | 169 °C

Now from value to compound:

Tpeak of mass loss (° C.) Nitrogen (rep 1) | SMILES
102 °C | CC(C)[C@@H]1CC[C@@H](C)CC12OCC(CO)O2 (single isomer, unassigned; (-)) [Frescolat ® MGA, (−)-menthone 1,2-glycerol ketal]
132 °C | CCNC(=O)[C@H]1C[C@@H](C)CC[C@@H]1C(C)C (stereo in doubt) [WS-3, (1S,2R,5S)-N-ethyl-5-methyl-2-(propan-2-yl)cyclohexanecarboxamide]
86 °C | CC(O)C(=O)O[C@@H]1C[C@H](C)CC[C@H]1C(C)C (stereo partly drawn) [Frescolat ® ML, (−)-menthyl lactate]

same assay, conditions: TGA in nitrogen, rep 2; 30° C. to 600° C. at 5° C./min

SMILES | Tpeak of mass loss (° C.) Nitrogen (rep 2)
CC(C)[C@@H]1CC[C@@H](C)C[C@H]1OCC(O)CO (stereo partly drawn) [Coolact ® 10, 3-((−)-menthoxy)propane-1,2-diol] | 119 °C
CC(C)[C@@H]1CC[C@@H](C)C[C@H]1C(=O)NCCc1ccccn1 [Evercool ® 190, (1R,2S,5R)-N-(2-(pyridin-2-yl)ethyl)menthylcarboxamide] | 174 °C

Results, then the compound that gave them:

Tpeak of mass loss (° C.) Nitrogen (rep 2) | SMILES
94 °C | CC(C)[C@@H]1CC[C@@H](C)CC12OCC(CO)O2 (single isomer, unassigned; (-)) [Frescolat ® MGA, (−)-menthone 1,2-glycerol ketal]
128 °C | CCNC(=O)[C@H]1C[C@@H](C)CC[C@@H]1C(C)C (stereo in doubt) [WS-3, (1S,2R,5S)-N-ethyl-5-methyl-2-(propan-2-yl)cyclohexanecarboxamide]
91 °C | CC(O)C(=O)O[C@@H]1C[C@H](C)CC[C@H]1C(C)C (stereo partly drawn) [Frescolat ® ML, (−)-menthyl lactate]

system: not given; assay: not given; conditions: @ 760 mmHg (atmospheric pressure); approximate, from the literature; cited from earlier work

SMILES | Boiling point (° C.) @ 760 mmHg unless stated
CC(C)[C@@H]1CC[C@@H](C)CC12OCC(CO)O2 (single isomer, unassigned; (-)) [Frescolat ® MGA, (−)-menthone 1,2-glycerol ketal] | 138-142 °C
CCNC(=O)[C@H]1C[C@@H](C)CC[C@@H]1C(C)C (stereo in doubt) [WS-3, (1S,2R,5S)-N-ethyl-5-methyl-2-(propan-2-yl)cyclohexanecarboxamide] | 340.55 °C
CC(C)[C@@H]1CC[C@@H](C)C[C@H]1OCC(O)CO (stereo partly drawn) [Coolact ® 10, 3-((−)-menthoxy)propane-1,2-diol] | 362.8 ± 22.0 °C
CC(C)[C@@H]1CC[C@@H](C)C[C@H]1C(=O)NCCc1ccccn1 [Evercool ® 190, (1R,2S,5R)-N-(2-(pyridin-2-yl)ethyl)menthylcarboxamide] | 461.6 ± 24.0 °C
CC(O)C(=O)O[C@@H]1C[C@H](C)CC[C@H]1C(C)C (stereo partly drawn) [Frescolat ® ML, (−)-menthyl lactate] | 304.0 ± 15.0 °C
